In patent US8344113B2, “Diagnostic tumor markers, drug screening for tumorigenesis inhibition, and compositions and methods for treatment of cancer” (Minerva Biotechnologies Corporation, priority 2000, dated 2013):
No end group written: not given here.

How the values were obtained:
K293 cells = experiment: Cell proliferation assay, negative control cells treated with drug candidates; type: cell-based, human
Experimental: (§1) T47D cells, mammary carcinoma cells known to overexpress MUC1, were grown in the wells of an ELISA plate along with K293 cells, human embryonic kidney cells which will serve as the negative control. 100 μl cells in growth media were added to the wells of an ELISA plate and the cells were allowed to adhere overnight. The number of cells in each well on the plate were then counted and recorded. 1 μl of a drug candidate in DMSO was then added to each well of both the T47D cells and the K293 cells. 1 μl DMSO alone was added to control wells. Each well was repeated in triplet. The cells were allowed to grow for 48 hours, the normal doubling time for these cell lines. The number of cells in each well was again counted and recorded. The percent cell growth over this 48-hour period was calculated, and the percent cell growth for wells containing a drug candidate versus DMSO were compared. […] Cell growth in the presence of Etomoxir was […] for T47D cells and 94% for control cells (K293); Cell growth in the presence of L-alpha-methyl-DOPA was 20% for T47D cells and 110% for control cells (K293); Cell growth in the presence of Fusaric acid was 27.7% for T47D cells, and 106.7% for control cells (K293); Cell growth in the absence of any drug (but with an equivalent amount of DMSO added) was 91.3% for T47D cells, and 106.2% for control cells (K293).

T47D cells [1] = experiment: Cell proliferation assay, MUC1 tumor cells treated with drug candidates; type: cell-based, human; conditions: for Selective inhibition of proliferation of MUC1-expressing tumor cells over control cells: T47D versus K293, 48 hours; for Cell growth (percent cell growth over 48 hours): T47D cells
Experimental: as §1

[2] = target: T1, MGFR portion of the MUC1 receptor and its activating ligand(s) (Homo sapiens, UniProt P15941, R1131P); experiment: Colloid-based color-change drug screening assay (His-PSMGFR colloids plus T47D cell lysate); type: binding; conditions: final drug concentration approximately 100 μM
T1 construct: made in house; host or cells: chemical synthesis (synthetic peptide)
T1 sequence (P15941 with tags, fused parts or gaps R1131P): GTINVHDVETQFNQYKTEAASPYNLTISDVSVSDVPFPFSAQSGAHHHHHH
Experimental: In a typical example, 1.5 ml of commercially available gold colloid (Auro Dye by Amersham) were pelleted by centrifugation in a microfuge on high for 10 minutes. The pellet was resuspended in 100 μL of the storage buffer (sodium citrate and tween-20). 100 μL of a dimethyl formamide (DMF) solution containing thiols. Following a 3-hour incubation in the thiol solution, the colloids were pelleted and the supernatant discarded. They were then heat cycled in 100 μL of 400 μM tri-ethylene glycol-terminated thiol in DMF for 2 minutes at 55° C., 2 minutes at 37° C., 1 minute at 55° C., 2 minutes at 37° C., then room temperature for 10 minutes. Heat cycling results in the elimination of any species that are not in the lowest energy confirmation, resulting in a stable, close-packed, self-assembled monolayer. Heat cycling can be carried out with any of a wide variety of self-assembled monolayer-forming species. The colloids were then pelleted and 100 μL 100 mM NaCl phosphate buffer were added. The colloids were then diluted 1:1 with 180 μM NiSO4 in the colloid storage buffer.
Thiols used in coating colloids typically were derived from solutions containing about 40 μM nitrilo tri-acetic acid (NTA)-thiol, and other thiols such as methyl-terminated thiol (HS—(CH2)15 CH3), 40% tri-ethylene glycol-terminated thiol, HS(CH2)11[…], (formula) and 50% poly(ethynylphenyl) thiol (C16H10S).
Colloid aggregation can be sensitively detected by monitoring color change of colloid particles which are initially disperse in suspension. Aggregation results in a color change to blue. No auxiliary signaling entity is necessary. In drug screening, aggregation (or lack thereof) is observed in the presence of candidate drugs.
The following is an example of a working drug screening assay to identify anti-cancer agents. In this example, a histidine-tagged peptide derived from the portion of the MUC1 receptor that remains attached to the cell surface after receptor cleavage (His-PSMGFR) was attached to NTA-nickel-SAM-coated gold colloids. The peptide-presenting colloids were incubated with lysates/supernatants from MUC1 presenting cells that were shown herein to contain ligands that cause dimerization or multimerization of that portion of the MUC1 receptor. This ligand-induced multimerization of the MGFR portion of the receptor causes the attached colloids to be drawn close together, which causes a change in the color of the colloid solution from pink to blue. Drugs that interfere with the binding of activating ligands to the MGFR portion of the receptor cause the solution to remain pink.
Negative control wells contained colloids bound with a random sequence histidine-tagged peptide in place of the MUC1 peptide. […] The well containing colloids that presented the PSMGFR peptide plus T47D cell lysates (Well A) changed color from pink to blue, indicating the presence of a multimerizing ligand. Wells that contained a random sequence peptide (RGD) in place of the PSMGFR peptide (Well B) remained pink. Wells that contained phosphate buffer in place of cell lysate also remained pink (Wells C and D).
T47D cells were trypsinized from a T25 flask, pelleted, resuspended in phosphate buffer, and lysed by sonication to release the ligand into solution. NTA-SAM-coated colloids were bound with the His-PSMGFR peptide:
200 μl NTA-SAM-coated colloids were incubated with 20 μl 100 μM peptide in phosphate buffer for 15 minutes, pelleted to remove unbound peptide, and resuspended in phosphate buffer. […]

T47D cells [3] = experiment: Modulation of the inhibitory effect of Etomoxir on cell proliferation by added PSMGFR; type: cell-based, human
Experimental: The following experiment was performed in triplicate. T47D cells were grown to approximately 30% confluency. […] Then, a synthetic peptide (PSMGFR) was added to the cell growth media under normal cell growth conditions.

PSMGFR peptide = target: T2, PSMGFR peptide (Homo sapiens, UniProt P15941, R1131P); experiment: Co-elution of drugs with bead-immobilized His-PSMGFR peptide (HPLC / TLC); type: binding; conditions: eluates from NTA-nickel beads analyzed by TLC
T2 construct: made in house; host or cells: chemical synthesis (synthetic peptide)
T2 sequence (P15941 with tags, fused parts or gaps R1131P): T1 sequence (P15941 with tags, fused parts or gaps R1131P)
Experimental: The His-PSMGFR peptide was attached to NTA-nickel agarose beads then separately incubated with each of the drug candidates. 100 μl beads were bound to saturation with 1 mg peptide, rinsed to remove unbound peptide, and incubated with 25 μl 2.7 mg/ml drug candidate in DMSO for one hour in 5 ml phosphate buffer. Unbound drugs were washed away with phosphate buffer, and the peptide was eluted from the beads with PBS, 250 mM imidazole. If the drug candidate bound to the peptide, it would co-elute with the peptide in the imidazole solution. Peptide-drug complexes were then separated by HPLC. HPLC elution peaks from the complex were compared to the elution peaks from the drug, injected alone, and the PSMGFR peptide alone.
In a similar experiment, eluates from the beads were analyzed by TLC (thin layer chromatography). Two drugs, calcimycin and NS1619 which could be tracked by TLC, because they fluoresced under UV light, were tested. NTA-nickel bead-immobilized peptides were incubated with the drugs as described above, rinsed and eluted from the beads, then rotoevaporated to remove the aqueous buffer. The solid was then resuspended in ethylacetate, 5% methanol and spotted on TLC plates then run in the same organic solvent. […] Calcimycin, gave a clear blue spot under 250 nm UV light and ran at a less polar position (as expected) than the peptide itself. […]

[4] = system: MUC1 receptor fragments (self-aggregation); experiment: Colloid color-change self-aggregation assay of MUC1-derived peptides; type: binding, human; conditions: peptide on NTA-Ni colloids
Experimental: Histidine-tagged peptides were synthesized with the sequences shown in table 1 (the various regions of MUC1). The lyophilized peptides were dissolved in DMSO to give a final concentration of 5 mM. A stock solution of each peptide was made by dissolving 4 μl 5 mM DMSO stock in 196 μl Phosphate-Buffered-Saline (PBS) for a resulting concentration of 100 μM. 20 μl of each 100 μM peptide solution was added to 100 μl colloids presenting NTA-Ni to capture the histidine tag of the peptides. The colloids were incubated with the histidine-tagged peptides at room temperature for 10 minutes to allow binding of the histidine-tags to the NTA-Ni on the surface of the colloids. 20 μl aliquots of each peptides species on colloids was then mixed with 20 μl of every other peptide species and with 60 μl of phosphate buffer pH 7.4. The color change of the colloid solutions was recorded after 15 minutes, see FIG. 2. Row A contains the His-PSIBR (primary sequence interchain binding region) peptide; Row B contains the His-TR peptide; Row C contains the His-RM2 peptide; Row D contains the His-PSMGFR peptide. Column 1 contains the His-PSIBR peptide; Column 2 contains the His-TR peptide; Column 3 contains the His-RM2 peptide; and Column 4 contains the His-PSMGFR peptide. […] During this period, the set of colloids incubated with the His-PSIBR peptide changed color from pink to blue. Only the well of Row A, Column 1, which is the cross section of PSIBR with itself, turned from pink to blue within the first 10 minutes.
The colloid sets were centrifuged to form a pellet and were resuspended in phosphate buffer. […] Since there was only one peptide species on the colloids, the binding interaction must be the PSIBR peptide binding to itself. The other sets of colloids bound to peptides were assayed for their interaction with one another by mixing 15 μl of one colloid type with 15 μl of a second colloid type and 70 μl phosphate buffer.
The peptide was attached to colloid particles presenting NTA thiols, as in other experiments described herein. […]

Compound	Cell growth (percent cell growth over 48 hours) (K293 cells) [%]	Interruption of the interaction of MGFR with its ligand(s) (colloid solution stays pink) [2]	Self-aggregation of colloid-immobilized peptide (color change pink to blue) [4]	other results
CCOC(=O)[C@@]1(CCCCCCOc2ccc(Cl)cc2)CO1 [Etomoxir]	94	interrupt the interaction of MGFR with its ligand(s)		Selective inhibition of proliferation of MUC1-expressing tumor cells over control cells (T47D cells [1]): selectively inhibited proliferation of the MUC1-expressing tumor cells over K293 negative control cells; Cell proliferation in the presence of drug (T47D cells [3]; approx. 100 micromolar): arrested
CCCCc1ccc(C(=O)O)nc1 [Fusaric acid]	106.7			Cell growth (percent cell growth over 48 hours) (T47D cells [1]): 27.7%
C[C@](N)(Cc1ccc(O)c(O)c1)C(=O)O [L-alpha-methyl-DOPA]	110	interrupt the interaction of MGFR with its ligand(s)		Cell growth (percent cell growth over 48 hours) (T47D cells [1]): 20%; Selective inhibition of proliferation of MUC1-expressing tumor cells over control cells (T47D cells [1]): selectively inhibited proliferation of the MUC1-expressing tumor cells over K293 negative control cells
O=c1[nH]c2cc(C(F)(F)F)ccc2n1-c1cc(C(F)(F)F)ccc1O [NS1619]		interrupt the interaction of MGFR with its ligand(s)		Direct binding to PSMGFR peptide (co-elution, TLC) (PSMGFR peptide): co-eluted with the PSMGFR peptide
CCCC[C@@]1(C2CCCC2)Cc2cc(OCC(=O)O)c(Cl)c(Cl)c2C1=O [butylindazone]		interrupt the interaction of MGFR with its ligand(s)		
CNc1ccc2oc(C[C@H]3O[C@@]4(CC[C@H]3C)O[C@H]([C@H](C)C(=O)c3ccc[nH]3)[C@H](C)C[C@H]4C)nc2c1C(=O)O [calcimycin]		interrupt the interaction of MGFR with its ligand(s)		Direct binding to PSMGFR peptide (co-elution, TLC) (PSMGFR peptide): co-eluted with the PSMGFR peptide
ESMGFR: Histidine-tagged Extended Sequence of MUC1 Growth Factor Receptor, SEQ ID NO: 3 (VQLTLAFREGTINVHDVETQFNQYKTEAASPYNLTISDVSVSDVPFPFHHHHHH; “Extended Sequence of the MUC1 Growth Factor Receptor” (ESMGFR))			self-aggregated	
His-PSMGFR: Histidine-tagged PSMGFR peptide, SEQ ID NO: 2 (GTINVHDVETQFNQYKTEAASPYNLTISDVSVSDVPFPFSAQSGAHHHHHH; His-PSMGFR peptides)			completely free of self-aggregation	
PSIBR: Primary Sequence of the Interchain Binding Region; tested histidine-tagged, SEQ ID NO: 4 (GFLGLSNIKFRPGSVVVQLTLAFRE; not fully specified (N-terminus); also: tested histidine-tagged, tag position not given here)			self-aggregates in a high affinity interaction	
PSMGFR: Primary Sequence of the MUC1 Growth Factor Receptor, SEQ ID NO: 7 (GTINVHDVETQFNQYKTEAASPYNLTISDVSVSDVPFPFSAQSGA; Primary Sequence of the MUC1 Growth Factor Receptor (PSMGFR))				Cell proliferation after adding peptide to Etomoxir-treated cells (T47D cells [3]; Etomoxir approx. 100 micromolar present): increased cell proliferation
